Molecules are shown by their SMILES.

The record followed here is patent US9066938B2, “GPBP-1 inhibition and its therapeutic use” (Fibrostatin S.L., priority 2012, dated 2015).

For this series, the system named is A549 cells. The series is classed as cell-based. On the procedure:
FIG. 2. […] Cells were seeded in 96-well plates and treated with the indicated compound combinations. The cellular viability (cell number) was measured with alamarBlue® and arbitrary units of fluorescence after 36 h of treatment (vertical axis).
FIG. 7. […] A549 cells were seeded on 96-well culture plates and after 4 h were treated with the indicated concentrations of doxorubicin in absence or presence of T12 (50 μM) and/or CFTR-inhibitor-172 (25 μM). Cells were cultured for additional 36 h and cell viability assessed as in FIG. 2.
A549 human lung adenocarcinoma cancer cells (CLS Cell Lines Service) were used as an ex vivo model for the assessment of anti-tumor activity of specific compounds. Unless otherwise indicated A549 cells were cultured in DMEM: Ham's F12 medium supplemented with 2 mM L-glutamine and 10% fetal bovine serum. A549 cells resistant to doxorubicin (A549-DR) were obtained treating cells with 1 μM for 4 weeks. A549 cells were transfected with a plasmid that expresses GPBP-1 and further selected with G418 (Invitrogen) to obtain a cell line (A549-GPBP) that constitutively expresses GPBP-1.
Cytotoxicity assays were performed with alamarBlue® reagent (Invitrogen) according to manufacturer's instructions. A549 cells were seeded on 96-well culture plates (7,500 cells/well) and allowed to settle during 4 h. Then, cells were cultured with individual peptidomimetics at concentrations ranging from 0 to 50 μM, in presence of doxorubicin at concentrations ranging from 0 to 10 μM for 36 h. JLSM cells were harvested by treatment with 0.25% trypsin (Lonza) and plated on collagen I coated 96-well black culture plate (Perkin Elmer) at a density of 10.000 cells per cm^2. After 4 h settling, cells were treated with different peptidomimetics (with or without doxorubicin) for 36 h. Subsequently alamarBlue® reagent was added and incubation maintained for 3 h. Fluorescence was measured using 560EX nm/590EM nm filter settings with a SpectraMax GeminiXPS (Molecular Devices). Blank wells containing media were used to determine background fluorescence.
The activity shown for each compound in Table 1 is the factor by which doxorubicin LC50 is reduced by the compound at a 50-μM concentration in A549 cell cultures. […] The symbols −, −/+, +, ++, +++, ++++ in the third column are used to show relative activities of compounds in a simplified way.

Regarding `COc1ccc(-c2ccc(-c3cccc(C)c3)c(C)c2)c(CCC(=O)O)c1` [T12, 3-[4″-methoxy-3,2′-dimethyl-(1,1′;4′,1″)terphenyl-2″-yl] propionic acid], under “36 h, alamarBlue”, the “A549 cell viability, compound without doxorubicin” value is “did not alter cell viability”. In addition, the “Activity as enhancer of doxorubicin-induced cell death, relative activity symbol” value (compound at 50 μM, A549 cell cultures) is “+++”. Besides, the “effect on doxorubicin LC50 for A549 cells” value (compound combined with doxorubicin) is recorded as “reduced doxorubicin LC50 for A549 cells in a dose-dependent manner”.
